ChEMBL document CHEMBL1201862, “PubChem BioAssay data set” (2004)
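Values below derive from 48-hour exposures of cells grown in 96-well plates, with endpoints linearly interpolated between the two concentrations bracketing the appropriate inhibition level. GI50 marks 50% less growth.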 The source made the active and inactive calls. Cut-off read from the data, not from the text of the source: active = GI50 up to about 1.1 µM and inactive = higher.

Tests used:
Assay in all cases: NCI-60 cell line screen, 48 h
HT-29 = tested on: HT-29
IGROV-1 = tested on: IGROV-1
MDA-MB-435 = tested on: MDA-MB-435
SF-295 = tested on: SF-295
UO-31 = tested on: UO-31
HCC 2998 = tested on: HCC 2998
MDA-N = tested on: MDA-N
SK-MEL-5 = tested on: SK-MEL-5
PC-3 = tested on: PC-3
NCI-H23 = tested on: NCI-H23
SK-MEL-28 = tested on: SK-MEL-28
786-0 = tested on: 786-0
UACC-62 = tested on: UACC-62
MCF7 = tested on: MCF7
NCI-H226 = tested on: NCI-H226
MOLT-4 = tested on: MOLT-4
A498 = tested on: A498
ACHN = tested on: ACHN
KM12 = tested on: KM12
HOP-62 = tested on: HOP-62
EKVX = tested on: EKVX
NCI/ADR-RES = tested on: NCI/ADR-RES
Malme-3M = tested on: Malme-3M
OVCAR-8 = tested on: OVCAR-8
SR = tested on: SR
A549 = tested on: A549
HL-60 = tested on: HL-60
OVCAR-3 = tested on: OVCAR-3
SW-620 = tested on: SW-620
SF-539 = tested on: SF-539
COLO 205 = tested on: COLO 205
SN12C = tested on: SN12C
RPMI-8226 = tested on: RPMI-8226
LOX IMVI = tested on: LOX IMVI
BT-549 = tested on: BT-549
NCI-H460 = tested on: NCI-H460
SNB-19 = tested on: SNB-19
SK-MEL-2 = tested on: SK-MEL-2
HOP-92 = tested on: HOP-92
T47D = tested on: T47D
OVCAR-5 = tested on: OVCAR-5
NCI-H522 = tested on: NCI-H522
CCRF-CEM = tested on: CCRF-CEM
SF-268 = tested on: SF-268
SK-OV-3 = tested on: SK-OV-3
Hs-578T = tested on: Hs-578T
OVCAR-4 = tested on: OVCAR-4
UACC-257 = tested on: UACC-257
CAKI-1 = tested on: CAKI-1
K562 = tested on: K562
MDA-MB-231 = tested on: MDA-MB-231
SNB-75 = tested on: SNB-75
RXF 393 = tested on: RXF 393
HCT-15 = tested on: HCT-15
TK-10 = tested on: TK-10
DU-145 = tested on: DU-145
M14 = tested on: M14
U-251 = tested on: U-251
HCT-116 = tested on: HCT-116

For COC1=C(C(c2cc(OC)c(OC)c(OC)c2)c2cc3c(cc2OC)OCO3)C(=O)OC1 (stereo not drawn), the GI50 (HT-29) was 20.5 µM (inactive), the GI50 (IGROV-1) was 29.4 µM (inactive) and the GI50 (MDA-MB-435) was 4.66 µM (inactive). The GI50 (SF-295) was 15.1 µM (inactive), the GI50 (UO-31) was 14.2 µM (inactive) and the GI50 (HCC 2998) was 44.1 µM (inactive). For the same compound, the GI50 (MDA-N) was 3.94 µM (inactive), the GI50 (SK-MEL-5) was 22.8 µM (inactive) and the GI50 (PC-3) was 15.7 µM (inactive). The GI50 (NCI-H23) was 24.8 µM (inactive), the GI50 (SK-MEL-28) was 12.7 µM (inactive) and the GI50 (786-0) was 26.1 µM (inactive). The GI50 (UACC-62) was 10.6 µM (inactive), the GI50 (MCF7) was 29 µM (inactive) and the GI50 (NCI-H226) was 28.4 µM (inactive). For the same compound, the GI50 (MOLT-4) was 44.2 µM (inactive), the GI50 (A498) was 14.9 µM (inactive) and the GI50 (ACHN) was 26.7 µM (inactive). For the same compound, the GI50 (KM12) was 11.6 µM (inactive), the GI50 (HOP-62) was 24.8 µM (inactive) and the GI50 (EKVX) was 28.4 µM (inactive). The GI50 (NCI/ADR-RES) was 5.69 µM (inactive), the GI50 (Malme-3M) was 31.7 µM (inactive) and the GI50 (OVCAR-8) was 27 µM (inactive). The GI50 (SR) was 11.1 µM (inactive), the GI50 (A549) was 20.1 µM (inactive) and the GI50 (HL-60) was 8.55 µM (inactive). The GI50 (OVCAR-3) was 22.3 µM (inactive), the GI50 (SW-620) was 27 µM (inactive) and the GI50 (SF-539) was 15.4 µM (inactive). For the same compound, the GI50 (COLO 205) was 23.8 µM (inactive), the GI50 (SN12C) was 34.8 µM (inactive) and the GI50 (RPMI-8226) was 46 µM (inactive). For the same compound, the GI50 (LOX IMVI) was 10 µM (inactive), the GI50 (BT-549) was 47.2 µM (inactive) and the GI50 (NCI-H460) was 29.2 µM (inactive). For the same compound, the GI50 (SNB-19) was 30.7 µM (inactive), the GI50 (SK-MEL-2) was 45.2 µM (inactive) and the GI50 (HOP-92) was 58.9 µM (inactive). For the same compound, the GI50 (T47D) was > 100 µM (inactive), the GI50 (OVCAR-5) was 34.4 µM (inactive) and the GI50 (NCI-H522) was 7.8 µM (inactive). For the same compound, the GI50 (CCRF-CEM) was 21.4 µM (inactive), the GI50 (SF-268) was 24.6 µM (inactive) and the GI50 (SK-OV-3) was 41.2 µM (inactive). The GI50 (Hs-578T) was 9.18 µM (inactive), the GI50 (OVCAR-4) was 30.4 µM (inactive) and the GI50 (UACC-257) was > 34.4 µM (inactive). The GI50 (CAKI-1) was > 48.5 µM (inactive), the GI50 (K562) was 15 µM (inactive) and the GI50 (MDA-MB-231) was 28.6 µM (inactive). For the same compound, the GI50 (SNB-75) was > 37.9 µM (inactive), the GI50 (RXF 393) was 11.7 µM (inactive) and the GI50 (HCT-15) was 20.4 µM. For the same compound, the GI50 (TK-10) was > 44 µM (inactive), the GI50 (DU-145) was 29.2 µM (inactive) and the GI50 (M14) was 17.9 µM (inactive). For the same compound, the GI50 (U-251) was 33.3 µM (inactive) and the GI50 (HCT-116) was 7.01 µM (inactive).
In the case of C[C@@]12CCC(=O)C=C1CC[C@H]1C2=CC[C@]2(C)C1CC[C@@]2(C)O (stereo partly drawn), the GI50 (HT-29) is reported as 37.9 µM (inactive), the GI50 (IGROV-1) is reported as 79.3 µM (inactive) and the GI50 (MDA-MB-435) is reported as 23.3 µM (inactive). For the same compound, the GI50 (SF-295) was 32.3 µM (inactive), the GI50 (UO-31) was 41.9 µM (inactive) and the GI50 (HCC 2998) was 49 µM (inactive). The GI50 (MDA-N) was 23 µM (inactive), the GI50 (SK-MEL-5) was 41.6 µM (inactive) and the GI50 (PC-3) was 41.5 µM (inactive). For the same compound, the GI50 (NCI-H23) was 66.8 µM (inactive), the GI50 (SK-MEL-28) was > 100 µM (inactive) and the GI50 (786-0) was > 100 µM (inactive). The GI50 (UACC-62) was 37 µM (inactive), the GI50 (MCF7) was 57.3 µM (inactive) and the GI50 (NCI-H226) was > 100 µM (inactive). For the same compound, the GI50 (MOLT-4) was 38.4 µM (inactive), the GI50 (A498) was > 100 µM (inactive) and the GI50 (ACHN) was > 100 µM (inactive). For the same compound, the GI50 (KM12) was 29.7 µM (inactive), the GI50 (HOP-62) was 67.8 µM (inactive) and the GI50 (EKVX) was > 100 µM (inactive). The GI50 (NCI/ADR-RES) was 34.7 µM (inactive), the GI50 (Malme-3M) was > 100 µM (inactive) and the GI50 (OVCAR-8) was > 100 µM (inactive). For the same compound, the GI50 (SR) was 34.8 µM (inactive), the GI50 (A549) was 50.4 µM (inactive) and the GI50 (HL-60) was 25.4 µM (inactive). The GI50 (OVCAR-3) was 34.1 µM (inactive), the GI50 (SW-620) was 40.6 µM (inactive) and the GI50 (SF-539) was 61.9 µM (inactive). The GI50 (COLO 205) was 35 µM (inactive), the GI50 (SN12C) was 88.7 µM (inactive) and the GI50 (RPMI-8226) was 54.7 µM (inactive). The GI50 (LOX IMVI) was > 100 µM (inactive), the GI50 (BT-549) was 33.1 µM (inactive) and the GI50 (NCI-H460) was 43.6 µM (inactive). The GI50 (SNB-19) was > 100 µM (inactive), the GI50 (SK-MEL-2) was 38 µM (inactive) and the GI50 (HOP-92) was > 100 µM (inactive). The GI50 (T47D) was 73.5 µM (inactive), the GI50 (OVCAR-5) was > 100 µM (inactive) and the GI50 (NCI-H522) was 28.1 µM (inactive). The GI50 (CCRF-CEM) was 40.4 µM (inactive), the GI50 (SF-268) was 75.2 µM (inactive) and the GI50 (SK-OV-3) was 54.6 µM (inactive). For the same compound, the GI50 (Hs-578T) was 38.2 µM (inactive), the GI50 (OVCAR-4) was 25.2 µM (inactive) and the GI50 (UACC-257) was 69.2 µM (inactive). For the same compound, the GI50 (CAKI-1) was 48.3 µM (inactive), the GI50 (K562) was 38.4 µM (inactive) and the GI50 (MDA-MB-231) was 67.5 µM (inactive). The GI50 (SNB-75) was 66.1 µM (inactive), the GI50 (RXF 393) was > 100 µM (inactive) and the GI50 (HCT-15) was 36.2 µM. For the same compound, the GI50 (TK-10) was > 100 µM (inactive), the GI50 (DU-145) was > 100 µM (inactive) and the GI50 (M14) was 50.6 µM (inactive). For the same compound, the GI50 (U-251) was 41.3 µM (inactive) and the GI50 (HCT-116) was 52 µM (inactive).
